Here are results for 5 molecules from BindingDB's records for doi:10.1016/S0960-894X(97)00434-4 (1997).

Experiment [1] in a line: Compound was tested for the inhibition of Escherichia coli glutamyl-t-RNA synthetase.
The nature of experiment [2]: Compound was tested for the inhibition of aminoacyl tRNA Synthetase.

For orientation: Ki means a dissociation constant, usually derived from enzyme kinetics or from competition with a known ligand. As for `NC(CCC(=O)O)C(=O)OC[C@H]1CCCN1` (stereo not given in full), in experiment [1], the affinity, expressed as Ki, was 380 µM.

Regarding `NC(CCC(=O)O)C(=O)OC[C@H]1C[C@@H](O)C[C@@H](CO)N1` (stereo partly drawn) [4-ammonio-5-{[(2R,4S,6S)-4-hydroxy-6-(hydroxymethyl)piperidin-2-yl]methoxy}-5-oxopentanoate], the inhibitory constant (Ki) in experiment [1] was 20 µM. With `COc1cc(CNC(=O)CCCC/C=C/C(C)C)ccc1O` [Zostrix], the affinity in experiment [2], expressed as Ki, was 42 µM.

Take `NC(CCC(=O)O)C(=O)OC[C@H]1OC(O)[C@H](O)[C@@H]1O` (stereo not given in full): the affinity in experiment [1] corresponds to a Ki of 500 µM. In the case of `NC(CCC(=O)O)C(=O)OC[C@@H]1CCCN1` (stereo not given in full), the Ki in experiment [1] was 11400 µM. Against the preceding molecule, the Ki is about 23-fold higher.
